The nature of data set [1]: Aqueous solubility by nephelometry. Conditions: aqueous medium (not further specified), kinetic from dmso stock, measured by nephelometry. In kind it is physicochemical. An excerpt:
(§1) Due to a lack of UV chromophore and/or poor mass spectrometry ionisation, nephelometry46 was used to measure the solubility. PAMPA (parallel artificial membrane permeability assay)47 was used to assess the permeability.

Data set [2] can be described thus: PAMPA (parallel artificial membrane permeability assay). Type of data set: in vitro ADME.
Text: as §1
For orientation: In PAMPA a lipid-coated filter parts donor from acceptor wells.

Data set [3] has as its system L1210 mouse lymphocytic leukemia cells. Also noted: method as in earlier work. Conditions: in vitro; cited from earlier work.
In data set [4] the test system is PC3 cells. Particulars: 50 µM; cited from earlier work.
The next data set has as its system cancer cells. Also noted: method as in PMID 20420415. Conditions: 50 µM; cited from earlier work.
Data set [5] is described as follows: Permeability across a Caco-2 monolayer. Type of data set: in vitro ADME, human. Conditions: human, read-out: permeability across a monolayer of Caco‐2 cells. (Caco-2 monolayers are a common model of the intestinal barrier.)
The test system of data set [6] is Caco‐2 human intestinal cancer cells. The data set is described as follows: Permeability across a Caco-2 monolayer. Type of data set: in vitro ADME.
The subject of data set [7] is PC3 human prostate cancer cell line. The data set is described as follows: NCI panel growth inhibition, PC3 line. Type of data set: cell-based. Conditions: PC3, single concentration of 10 µM, 48 h, NCI screen, read-out: inhibition of proliferation. As to the method:
A selection of fifteen of the cembranoid‐inspired compounds was screened against a panel of 60 cancer cell lines at the National Cancer Institute screening panel (see the Supporting Information).49 This cell‐based assay aims to discover compounds with a strong cytostatic or cytotoxic growth inhibition over 48 h. Unfortunately, only low levels (up to 20 %) of cell growth inhibition were seen when screened at a single concentration of 10 µM.

Data set [8] concerns PC3 cells. The data set is described as follows: SRB antiproliferative concentration-response assay. Type of data set: cell-based. Conditions: Homo sapiens, PC-3, in vitro 96 h assay, full dose response curve. As for the experimental part:
(§2) Figure 6 a) Concentration–response curve for the antiproliferative effect of compound 28 on PC3 cells in vitro 96 h assay. b) Compound 28 inhibiting the migration properties of PC3 TEM cancer cells. FCS=fetal calf serum.
Cells were seeded in 100μl medium into 96-well plates. After 36 hours, serial doubling dilutions of drug (or vehicle) were added to give the required dose range in sextuplicate across the plate. Cells were incubated for a further 96 hours. The medium was then removed and cells were fixed by adding 50μl of 10% (w/v) trichloroacetic acid (TCA) for one hour at room temperature. The plates were gently washed by immersion in tap water three times then air dried. 50μl of 0.4% (w/v) SRB in 1% (v/v) acetic acid was added to each well for one hour. […] Absorbance at 570nm was measured using a SPECTRAmax 340PC plate reader.
(§3) Cells in standard tissue culture flasks were fluorescently labelled by incubation with 1umol/L CellTracker Green 5-chloromethylfluorescein diacetate (Invitrogen, Paisley) concomitant with serum starvation for two hours. Following trypsinisation cells were counted and added to the upper wells of 8um pore FluoroblokTM membrane inserts in 24-well companion plates (BD Biosciences, Franklin Lakes, NJ). […] Cells which successfully migrated to the lower surface of the filter were visualised using an inverted fluorescence

In a further data set the test system is PC3 TEM cancer cells. The data set is described as follows: Migration assay (Fluoroblok membrane, FCS chemotaxis). Type of data set: cell-based, human. Particulars: 3‐ and 5‐fold GI50 concentrations, FCS-stimulated migration. As to the method:
as §2
Whereas cembranoid natural products may not be inherently cytotoxic, an appreciable number do display an ability to inhibit the migratory and invasive properties of cancer cells.50 The effect of compound 28 on a PC3‐based migratory assay was therefore determined.
Cells were seeded in 100μl medium into 96-well plates. After 36 hours, serial doubling dilutions of drug (or vehicle) were added to give the required dose range in sextuplicate across the plate. Cells were incubated for a further 96 hours. […] Absorbance at 570nm was measured using a SPECTRAmax 340PC plate reader.
as §3

Molecules are shown by their SMILES. In brackets after ≈: the same amount, converted by molar mass.

As to `CC1(C)CCC(=O)OCC2OC1C1CCCCC21` (stereo not drawn) [Compound 65], the solubility – broadly, how much of the substance goes into solution per volume – in data set [1] is 550 µM (≈ 139 µg/mL). In data set [2], the permeability (Pe) is over 1500 nm/s.
`C=C1CC[C@H](C(C)C)[C@@H]2[C@H]1[C@H]1C[C@](C)(O)[C@@H](O)CC[C@@](C)(O)[C@@H]2O1` [sclerophytin A]: the IC50 (in general, the concentration that inhibits the measured activity by half) in data set [3] is 0.003 µM. The effect on proliferation entry in the data set with PC3 cells [4] is “no effect on proliferation”. Further, the inhibition of migration in the data set on cancer cells is recorded as 85%.
As for `C=CCC1OC(COC(=O)C=CC)C2CC=CCC12` (stereo not drawn) [Compound 15], the solubility in data set [1] stood at 500 µM (≈ 131 µg/mL). Besides, in data set [2], the permeability (Pe) turned out to be 250 nm/s.
Consider `OC1CCC=CCC2OC1C1CCCCC21` (stereo not drawn) [Compound 76], for which, in [1], the concentration in solution (solubility) came to 500 µM (≈ 111 µg/mL).
`O=C1CCC/C=C/C[C@@H]2O[C@H](CO1)[C@H]1CCCC[C@H]12` [Compound 28] registered a solubility in data set [1] of 550 µM (≈ 145 µg/mL). For the same compound, the permeability (Pe) in data set [2] turned out to be 520 nm/s. Also, the Papp in data set [5] was 160 nm/s. Further, in data set [6], the transporter efflux result was “no evidence of transporter efflux”. Also, the inhibition at 10 µM in data set [7] worked out at 17%. The GI50 – broadly, the concentration that inhibits growth by half – with PC3 cells [8] came to 63 µM. Moreover, the “effect on cell migration” value with PC3 TEM cancer cells is given as “reduction to near basal levels of migration”.

Values taken from article PMC4869678, “Synthesis and Evaluation of a 2,11‐Cembranoid‐Inspired Library” (Chemistry (Weinheim an Der Bergstrasse, Germany), 2016).
